Tested on: IL-6 (THP-1 cells)
Assay: IL-6 inhibition in LPS-stimulated THP-1 monocytes (HTRF)
Assay type: cell-based
Conditions: Homo sapiens, IL-6 HTRF; for EC50: 500 ng/mL LPS, Table 6; for inhibition at 10 µM: LPS, Table 6, read-out: percent inhibition at 10 μM (given in parentheses for EC50 >10 μM)
Outline: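 THP-1 cells in 1% FBS pre-incubated 2 h with compound (10-point 1:3 series from 10 μM, 0.1% DMSO), then stimulated with 500 ng/mL LPS for 22 h at 37 °C. IL-6 measured by HTRF 665/620 ratio, normalized to DMSO; EC50 by four-parameter fit, or % inhibition at 10 μM when EC50 >10 μM.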

Row | EC50 [µM] | Structure (SMILES) | inhibition at 10 µM [%]
1 | > 10 | O=C(Nc1cncc(-c2ccc3[nH]nc(-c4nc5c(-c6cccc(F)c6)cccc5[nH]4)c3n2)c1)C1CC1 [Compound 20, N-(5-(3-(4-(3-Fluorophenyl)-1H-benzo[d]imidazol-2-yl)-1H-pyrazolo[4,3-b]pyridin-5-yl)pyridin-3-yl)cyclopropanecarboxamide] | 0
2 | > 10 | O=C(Nc1cncc(-c2ccc3[nH]nc(-c4nc5c(N6CCCCC6)cccc5[nH]4)c3n2)c1)C1CC1 [Compound 188, N-(5-(3-(4-(Piperidin-1-yl)-1H-benzo[d]imidazol-2-yl)-1H-pyrazolo[4,3-b]pyridin-5-yl)pyridin-3-yl)cyclopropanecarboxamide] | 0
3 | > 10 | FC1(F)CCN(Cc2cncc(-c3ccc4[nH]nc(-c5nc6c(N7CCCCC7)cccc6[nH]5)c4n3)c2)C1 [Compound 194, 5-(5-((3,3-Difluoropyrrolidin-1-yl)methyl)pyridin-3-yl)-3-(4-(piperidin-1-yl)-1H-benzo[d]imidazol-2-yl)-1H-pyrazolo[4,3-b]pyridine] | 46.9
4 | > 10 | CN1CCN(c2cccc3[nH]c(-c4n[nH]c5ccc(-c6cncc(NC(=O)C7CCCC7)c6)nc45)nc23)CC1 [Compound 246, N-(5-(3-(4-(4-Methylpiperazin-1-yl)-1H-benzo[d]imidazol-2-yl)-1H-pyrazolo [4,3-b]pyridin-5-yl)pyridin-3-yl)cyclopentanecarboxamide] | 35.7
5 | 2.5 | CC(C)(C)CC(=O)Nc1cncc(-c2ccc3[nH]nc(-c4nc5ccccc5[nH]4)c3n2)c1 [Compound 268, N-(5-(3-(1H-Benzo[d]imidazol-2-yl)-1H-pyrazolo[4,3-b]pyridin-5-yl)pyridin-3-yl)-3,3-dimethylbutanamide] | –
6 | 1.84 | O=C(Nc1cncc(-c2ccc3[nH]nc(-c4nc5ccccc5[nH]4)c3n2)c1)C1CCCCC1 [Compound 275, N-(5-(3-(1H-Benzo[d]imidazol-2-yl)-1H-pyrazolo[4,3-b]pyridin-5-yl)pyridin-3-yl) cyclohexanecarboxamide] | –
7 | 0.0727 | c1ccc(-c2ccc3[nH]nc(-c4nc5ccccc5[nH]4)c3n2)nc1 [Compound 280, 3-(1H-Benzo[d]imidazol-2-yl)-5-(pyridin-2-yl)-1H-pyrazolo[4,3-b]pyridine] | –
8 | > 10 | CCCC(=O)Nc1cncc(-c2ccc3[nH]nc(-c4nc5c(-c6ccsc6)cccc5[nH]4)c3n2)c1 [Compound 297, N-(5-(3-(4-(Thiophen-3-yl)-1H-benzo[d]imidazol-2-yl)-1H-pyrazolo[4,3-b]pyridin-5-yl)pyridin-3-yl)butyramide] | 0
9 | 5.33 | c1ccc(CNCc2cncc(-c3ccc4[nH]nc(-c5nc6c(-c7ccsc7)cccc6[nH]5)c4n3)c2)cc1 [Compound 304, N-Benzyl-1-(5-(3-(4-(thiophen-3-yl)-1H-benzo[d]imidazol-2-yl)-1H-pyrazolo[4,3-b]pyridin-5-yl)pyridin-3-yl)methanamine] | –
10 | > 10 | c1csc(-c2cccc3[nH]c(-c4n[nH]c5ccc(-c6ccncc6)nc45)nc23)c1 [Compound 354, 5-(Pyridin-4-yl)-3-(4-(thiophen-2-yl)-1H-benzo[d]imidazol-2-yl)-1H-pyrazolo[4,3-b]pyridine] | 20.4
11 | > 10 | O=C(Nc1cncc(-c2ccc3[nH]nc(-c4nc5c(-c6cccs6)cccc5[nH]4)c3n2)c1)C1CC1 [Compound 356, N-(5-(3-(4-(Thiophen-2-yl)-1H-benzo[d]imidazol-2-yl)-1H-pyrazolo[4,3-b]pyridin-5-yl)pyridin-3-yl)cyclopropanecarboxamide] | 25.7
12 | 4.26 | CN(C)CCNc1cc(F)cc(-c2cccc3[nH]c(-c4n[nH]c5ccc(-c6cncc(CNCC7CCCC7)c6)nc45)nc23)c1 [Compound 473, N^1-(3-(2-(5-(5-(((Cyclopentylmethyl)amino)methyl)pyridin-3-yl)-1H-pyrazolo[4,3-b]pyridin-3-yl)-1H-benzo[d]imidazol-4-yl)-5-fluorophenyl)-N^2,N^2-dimethylethane-1,2-diamine] | –
13 | 8.75 | CN(C)CCNc1cc(F)cc(-c2cccc3[nH]c(-c4n[nH]c5ccc(-c6ccccn6)nc45)nc23)c1 [Compound 476, N^1-(3-Fluoro-5-(2-(5-(pyridin-2-yl)-1H-pyrazolo[4,3-b]pyridin-3-yl)-1H-benzo[d]imidazol-4-yl)phenyl)-N^2,N^2-dimethylethane-1,2diamine] | –
14 | 1.34 | CS(=O)(=O)NCc1cc(F)cc(-c2cccc3[nH]c(-c4n[nH]c5ccc(-c6cncc(CNCc7ccccc7)c6)nc45)nc23)c1 [Compound 500, N-(3-(2-(5-(5-((Benzylamino)methyl)pyridin-3-yl)-1H-pyrazolo[4,3-b]pyridin-3-yl)-1H-benzo[d]imidazol-4-yl)-5-fluorobenzyl)methanesulfonamide] | –
15 | 3.71 | CS(=O)(=O)NCc1cc(F)cc(-c2cccc3[nH]c(-c4n[nH]c5ccc(-c6cncnc6)nc45)nc23)c1 [Compound 503, N-(3-Fluoro-5-(2-(5-(pyrimidin-5-yl)-1H-pyrazolo[4,3-b]pyridin-3-yl)-1H-benzo[d]imidazol-4-yl)benzyl)methanesulfonamide] | –
16 | 0.727 | Fc1cccc(-c2cccc3[nH]c(-c4n[nH]c5ccc(-c6cncc(OCCN7CCCC7)c6)nc45)nc23)c1 [Compound 514, 3-(4-(3-Fluorophenyl)-1H-benzo[d]imidazol-2-yl)-5-(5-(2-(pyrrolidin-1-yl)ethoxy)pyridin-3-yl)-1H-pyrazolo[4,3-b]pyridine] | –
17 | 0.0028 | c1cncc(-c2cccc3[nH]c(-c4n[nH]c5ccc(-c6cncc(OC7CCCCC7)c6)nc45)nc23)c1 [Compound 559, 5-(5-(Cyclohexyloxy)pyridin-3-yl)-3-(4-(pyridin-3-yl)-1H-benzo[d]imidazol-2-yl)-1H-pyrazolo[4,3-b]pyridine] | –
18 | 0.232 | Oc1cncc(-c2ccc3[nH]nc(-c4nc5c(-c6cccnc6)cccc5[nH]4)c3n2)c1 [Compound 565, 5-(3-(4-(Pyridin-3-yl)-1H-benzo[d]imidazol-2-yl)-1H-pyrazolo[4,3-b]pyridin-5-yl)pyridin-3-ol] | –
19 | 0.695 | c1cc(N2CCCCC2)c2nc(-c3n[nH]c4ccc(-c5cncc(OCCN6CCCC6)c5)nc34)[nH]c2c1 [Compound 610, 3-(4-(Piperidin-1-yl)-1H-benzo[d]imidazol-2-yl)-5-(5-(2-(pyrrolidin-1-yl)ethoxy)pyridin-3-yl)-1H-pyrazolo[4,3-b]pyridine] | –
20 | > 10 | COc1cncc(-c2ccc3[nH]nc(-c4nc5c(N6CCCCC6)cccc5[nH]4)c3n2)c1 [Compound 612, 5-(5-Methoxypyridin-3-yl)-3-(4-(piperidin-1-yl)-1H-benzo[d]imidazol-2-yl)-1H-pyrazolo[4,3-b]pyridine] | 34.2
21 | 6.77 | Oc1cncc(-c2ccc3[nH]nc(-c4nc5c(N6CCCCC6)cccc5[nH]4)c3n2)c1 [Compound 613, 5-(3-(4-(Piperidin-1-yl)-1H-benzo[d]imidazol-2-yl)-1H-pyrazolo[4,3-b]pyridin-5-yl)pyridin-3-ol] | –
22 | 4.9 | CN1CCN(c2cccc3[nH]c(-c4n[nH]c5ccc(-c6cncc(OC7CCCCC7)c6)nc45)nc23)CC1 [Compound 639, 5-(5-(Cyclohexyloxy)pyridin-3-yl)-3-(4-(4-methylpiperazin-1-yl)-1H-benzo [d]imidazol-2-yl)-1H-pyrazolo[4,3-b]pyridine] | –
